Data: patent US9896440B2, “Aryl substituted heterocyclyl sulfones” (GRÜNENTHAL GMBH, priority 2014, dated 2018)

Each compound was assayed against T1, Human CaV2.2 channels (Homo sapiens, UniProt Q00975) (assay: Fluorescence assay for CaV2.2 channels using potassium depolarization to induce channel opening (FLIPR, Fluo 4)). Conditions: 3 μM test compound, 30 mM KCl assay buffer (inactivated channel state), HEK293 cells.
T1 construct: expressed in transfected cells; Kir2.3 also stably co-expressed
T1 sequence (Q00975 whole entry): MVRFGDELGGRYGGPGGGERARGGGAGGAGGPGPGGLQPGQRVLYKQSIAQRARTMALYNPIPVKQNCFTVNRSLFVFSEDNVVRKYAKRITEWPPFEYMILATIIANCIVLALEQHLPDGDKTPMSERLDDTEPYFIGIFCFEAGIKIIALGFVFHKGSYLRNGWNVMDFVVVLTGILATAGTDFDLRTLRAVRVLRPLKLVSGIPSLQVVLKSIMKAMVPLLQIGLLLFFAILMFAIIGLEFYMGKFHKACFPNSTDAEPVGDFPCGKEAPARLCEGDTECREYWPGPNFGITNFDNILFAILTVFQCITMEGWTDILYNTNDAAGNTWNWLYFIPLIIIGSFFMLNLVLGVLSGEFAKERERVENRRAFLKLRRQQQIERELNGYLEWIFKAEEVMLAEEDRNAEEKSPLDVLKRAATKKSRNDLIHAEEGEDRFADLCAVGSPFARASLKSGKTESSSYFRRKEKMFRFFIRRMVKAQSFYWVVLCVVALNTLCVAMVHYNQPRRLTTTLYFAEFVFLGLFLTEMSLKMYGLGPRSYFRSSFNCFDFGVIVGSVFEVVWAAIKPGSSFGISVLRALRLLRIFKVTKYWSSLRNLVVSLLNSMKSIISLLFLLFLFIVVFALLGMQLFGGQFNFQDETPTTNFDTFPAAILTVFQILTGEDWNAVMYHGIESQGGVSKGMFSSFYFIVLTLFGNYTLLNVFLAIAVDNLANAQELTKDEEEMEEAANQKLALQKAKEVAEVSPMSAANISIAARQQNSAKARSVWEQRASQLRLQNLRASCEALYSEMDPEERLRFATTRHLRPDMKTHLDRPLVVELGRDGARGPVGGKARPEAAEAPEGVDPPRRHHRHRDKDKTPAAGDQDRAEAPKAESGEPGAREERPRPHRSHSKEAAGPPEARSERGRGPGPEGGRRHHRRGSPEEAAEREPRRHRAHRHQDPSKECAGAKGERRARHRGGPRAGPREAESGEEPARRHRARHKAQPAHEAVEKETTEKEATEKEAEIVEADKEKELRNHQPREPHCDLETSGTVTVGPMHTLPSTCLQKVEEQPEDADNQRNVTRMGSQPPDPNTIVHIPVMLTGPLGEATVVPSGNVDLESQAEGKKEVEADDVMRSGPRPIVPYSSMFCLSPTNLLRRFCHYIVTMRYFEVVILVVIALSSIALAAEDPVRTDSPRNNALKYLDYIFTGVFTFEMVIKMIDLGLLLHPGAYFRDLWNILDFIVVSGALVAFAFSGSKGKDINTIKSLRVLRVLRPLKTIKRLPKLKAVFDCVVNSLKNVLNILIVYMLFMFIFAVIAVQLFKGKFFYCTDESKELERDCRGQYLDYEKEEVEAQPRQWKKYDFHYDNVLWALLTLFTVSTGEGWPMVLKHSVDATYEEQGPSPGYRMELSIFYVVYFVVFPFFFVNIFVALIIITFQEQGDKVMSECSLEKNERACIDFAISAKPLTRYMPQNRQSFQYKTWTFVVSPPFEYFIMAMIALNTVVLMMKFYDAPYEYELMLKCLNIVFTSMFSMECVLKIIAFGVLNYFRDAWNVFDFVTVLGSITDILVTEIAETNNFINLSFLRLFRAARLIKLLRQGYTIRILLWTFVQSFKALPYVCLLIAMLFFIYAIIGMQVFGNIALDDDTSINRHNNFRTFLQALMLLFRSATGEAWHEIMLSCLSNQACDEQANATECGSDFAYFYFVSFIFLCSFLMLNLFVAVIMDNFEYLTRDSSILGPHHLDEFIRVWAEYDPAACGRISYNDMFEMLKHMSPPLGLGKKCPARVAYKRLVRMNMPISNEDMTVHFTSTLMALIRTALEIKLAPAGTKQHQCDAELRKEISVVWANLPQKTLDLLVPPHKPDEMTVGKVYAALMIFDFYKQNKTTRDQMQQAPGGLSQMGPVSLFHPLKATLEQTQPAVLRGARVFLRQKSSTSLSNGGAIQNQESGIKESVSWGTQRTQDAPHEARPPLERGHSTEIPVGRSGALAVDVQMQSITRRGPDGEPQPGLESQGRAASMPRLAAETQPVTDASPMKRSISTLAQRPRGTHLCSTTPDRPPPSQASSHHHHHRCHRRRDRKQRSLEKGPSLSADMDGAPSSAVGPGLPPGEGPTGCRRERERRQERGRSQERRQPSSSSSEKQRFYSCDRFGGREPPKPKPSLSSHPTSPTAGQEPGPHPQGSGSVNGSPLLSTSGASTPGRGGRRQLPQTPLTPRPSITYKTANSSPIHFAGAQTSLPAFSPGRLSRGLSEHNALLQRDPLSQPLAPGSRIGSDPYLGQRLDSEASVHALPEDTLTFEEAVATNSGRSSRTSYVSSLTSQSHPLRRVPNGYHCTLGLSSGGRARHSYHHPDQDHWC
Format: cell-based
Excerpt: In the process, the Ca^2+ influx is quantified in the FLIPR assay with the aid of a Ca^2+-sensitive dye (type Fluo-4, Molecular Probes Europe BV, Leiden, the Netherlands) in a fluorescent imaging plate reader (FLIPR 3, Molecular Devices, Sunnyvale, USA), as described hereinafter.
Human CaV2.2 channels were stably expressed in HEK293 cells together with alpha2-delta and beta subunits of voltage gated calcium channels. In addition, an inwardly rectifying potassium channel (Kir2.3) was stably expressed in these cells to augment control of the cell membrane potential by the concentration of extracellular potassium ions. Raise of the extracellular potassium concentration leads to depolarization of the membrane potential and thus regulates the voltage dependent state of CaV2.2 channels. For preparation, cells were seeded in black poly-D-lysine coated 96-well plates (Becton Dickinson, Biocoat 4640) in 100 μL medium [500 mL DMEM/F-12 plus Glutamax (Invitrogen 31331-093) plus 5.5 mL MEM NEAA 100× (Invitrogen 11140-035) plus 50 mL FBS decomplemented (Invitrogen 10270-106) plus 200 μg/mL Geneticin (Invitrogen 10131-027) plus 50 μg/mL Hygromycin B (Invitrogen 10687-010) plus 2 μg/mL Blasticidin (anti-bl5b Invivo-Gen) plus 0.2 μg/mL Puromycin (A 11138-03)] at a cell density of 30.000 cells per well. Plates were incubated at 37° C. (5% CO2) for 20 to 23 h. On the day of experiment medium was discarded and cells were loaded with Fluo 4 by addition of 100 μL of basic assay buffer (10 mM HEPES, 1 mM KCl, 149 mM NaCl, 0.8 mM CaCl2, 1.7 mM MgCl2, 10 mM Glucose, 0.1% BSA. pH 7.4) containing 2 μM Fluo 4 (Molecular Probes; F-14201), 0.01% pluronic acid (Molecular Probes; P-6866) and 2.5 mM probenecid (Molecular Probes; P36400). Cells were incubated in the dark at 25° C. for 60 min. Then dye containing buffer was discarded and 100 μL basic (1 mM KCl) or alternative (30 mM KCl) assay buffer was added. The alternative assay buffer contained altered concentrations of KCl (30 mM) and NaCl (120 mM) and was used in order to promote the inactivated channel state. After that 25 μL of basic or alternative assay buffer with or without test compound were added and cells were incubated again in the dark at 25° C. for 15 min. Fluorescence intensity was measured on a FLIPR 3 instrument (Molecular Devices Corp., Sunnyvale, Calif.) with excitation at 480 nm and emission at 535 nm. After continuously reading fluorescence for 30 sec, 50 μL of basic assay buffer containing 210 mM KCl (NaCl omitted) were added for depolarization. Peak fluorescent signal intensity was determined and the amplitude of the peak signal, normalized to base line, was used to measure channel inhibition by test compounds.

Structure (SMILES)	Activity Category: %-Inhib (CaV2.2) @3 μM @30 mM KCl
CC1(S(=O)(=O)c2cccc(C(F)(F)F)c2)CCOC(COc2ccc(S(C)(=O)=O)c(F)c2)C1 (single isomer, unassigned) [SC-151, 2-[(3-Fluoro-4-methylsulfonyl-phenoxy)-methyl]-4-methyl-4-[[3-(trifluoromethyl)phenyl]sulfonyl]-tetrahydro-pyran]	A (%-Inhibition >95%)
CC1(S(=O)(=O)c2cccc(C(F)(F)F)c2)COC(c2ccc(Cl)cc2)C1 (centres unmarked) [SC-101, 2-(4-Chlorophenyl)-4-methyl-4-[[3-(trifluoromethyl)phenyl]sulfonyl]-tetrahydro-furan]	A (%-Inhibition >95%)
CC1(S(=O)(=O)c2cccc(C(F)(F)F)c2)COC(c2ccc(Cl)cc2)C1 (centres unmarked) [SC-102, 2-(4-Chlorophenyl)-4-methyl-4-[[3-(trifluoromethyl)phenyl]sulfonyl]-tetrahydro-furan]	B (%-Inhibition >75% up to ≦95%)
CC1(S(=O)(=O)c2cccc(C(F)(F)F)c2)COC(c2ccc(Cl)cc2)C1 (centres unmarked) [SC-103, 2-(4-Chlorophenyl)-4-methyl-4-[[3-(trifluoromethyl)phenyl]sulfonyl]-tetrahydro-furan]	A (%-Inhibition >95%)
CC1(S(=O)(=O)c2cccc(C(F)(F)F)n2)CCOC(c2ccc(Cl)cc2)C1 (centres unmarked) [SC-105, 2-[[2-(4-Chlorophenyl)-4-methyl-tetrahydro-pyran-4-yl]sulfonyl]-6-(trifluoromethyl)-pyridine]	A (%-Inhibition >95%)
CC1(S(=O)(=O)c2cccc(C(F)(F)F)n2)CCOC(c2ccc(Cl)cc2)C1 (centres unmarked) [SC-106, 2-[[2-(4-Chlorophenyl)-4-methyl-tetrahydro-pyran-4-yl]sulfonyl]-6-(trifluoromethyl)-pyridine]	B (%-Inhibition >75% up to ≦95%)
CC1(S(=O)(=O)c2cccc(C(F)(F)F)n2)CCOC(c2ccc(Cl)cc2)C1 (centres unmarked) [SC-107, 2-[[2-(4-Chlorophenyl)-4-methyl-tetrahydro-pyran-4-yl]sulfonyl]-6-(trifluoromethyl)-pyridine]	B (%-Inhibition >75% up to ≦95%)
CCc1ccc(C(F)(F)F)cc1S(=O)(=O)C1CCOC(c2ccc(Cl)cc2)C1 (centres unmarked) [SC-110, 2-(4-Chlorophenyl)-4-[[2-ethyl-5-(trifluoromethyl)-phenyl]sulfonyl]-tetrahydro-pyran]	B (%-Inhibition >75% up to ≦95%)
CCc1ccc(C(F)(F)F)cc1S(=O)(=O)C1CCOC(c2ccc(Cl)cc2)C1 (centres unmarked) [SC-111, 2-(4-Chlorophenyl)-4-[[2-ethyl-5-(trifluoromethyl)-phenyl]sulfonyl]-tetrahydro-pyran]	C (%-Inhibition >40% up to ≦75%)
CC1(S(=O)(=O)c2cccc(C(F)(F)F)c2)CCOC(c2ccc(S(C)(=O)=O)cc2)C1 (centres unmarked) [SC-113, 4-Methyl-2-(4-methylsulfonyl-phenyl)-4-[[3-(trifluoromethyl)phenyl]sulfonyl]-tetrahydro-pyran]	B (%-Inhibition >75% up to ≦95%)
CC1(S(=O)(=O)c2cccc(C(F)(F)F)c2)CCOC(c2ccc(Cl)cc2S(C)(=O)=O)C1 (centres unmarked) [SC-115, 2-(4-Chloro-2-methylsulfonyl-phenyl)-4-methyl-4-[[3-(trifluoromethyl)phenyl]sulfonyl]-tetrahydro-pyran]	A (%-Inhibition >95%)
CC1(c2ccc(Cl)cc2)CC(S(=O)(=O)c2cccc(C(F)(F)F)c2)CCO1 (centres unmarked) [SC-141, 2-(4-Chlorophenyl)-2-methyl-4-[[3-(trifluoromethyl)phenyl]sulfonyl]-tetrahydro-pyran]	A (%-Inhibition >95%)
CC1(S(=O)(=O)c2cccc(C(F)(F)F)c2)CCOC(c2ccc(S(C)(=O)=O)c(F)c2)C1 (centres unmarked) [SC-144, 2-(3-Fluoro-4-methylsulfonyl-phenyl)-4-methyl-4-[[3-(trifluoromethyl)phenyl]sulfonyl]-tetrahydro-pyran]	A (%-Inhibition >95%)
CC1(S(=O)(=O)c2cccc(C(F)(F)F)c2)CCOC(c2cc(F)ccc2S(C)(=O)=O)C1 (centres unmarked) [SC-204, 2-(5-Fluoro-2-methylsulfonyl-phenyl)-4-methyl-4-[[3-(trifluoromethyl)phenyl]sulfonyl]-tetrahydro-pyran]	A (%-Inhibition >95%)

Same assay, conditions: HEK293, 3 μM test compound, 30 mM KCl assay buffer (inactivated channel state), HEK293 cells; read-out: Activity Category: %-Inhib (CaV2.2) @3 μM @30 mM KCl

Structure (SMILES)	inhibition at 3 µM [%]
CC1(S(=O)(=O)c2cccc(C(F)(F)F)c2)CCOC(COc2ccc(S(C)(=O)=O)c(F)c2)C1 (single isomer, unassigned) [SC-150, 2-[(3-Fluoro-4-methylsulfonyl-phenoxy)-methyl]-4-methyl-4-[[3-(trifluoromethyl)phenyl]sulfonyl]-tetrahydro-pyran]	75 to 95
CC1(S(=O)(=O)c2cccc(C(F)(F)F)c2)COC(c2ccc(Cl)cc2)C1 (centres unmarked) [SC-100, 2-(4-Chlorophenyl)-4-methyl-4-[[3-(trifluoromethyl)phenyl]sulfonyl]-tetrahydro-furan]	75 to 95
CC1(S(=O)(=O)c2cccc(C(F)(F)F)n2)CCOC(c2ccc(Cl)cc2)C1 (centres unmarked) [SC-104, 2-[[2-(4-Chlorophenyl)-4-methyl-tetrahydro-pyran-4-yl]sulfonyl]-6-(trifluoromethyl)-pyridine]	75 to 95
Cc1ccc(C(F)(F)F)cc1S(=O)(=O)C1CCOC(c2ccc(Cl)cc2)C1 (centres unmarked) [SC-108, 2-(4-Chlorophenyl)-4-((2-methyl-5-(trifluoromethyl)phenyl)sulfonyl)tetrahydro-2H-pyran]	75 to 95
CC1(S(=O)(=O)c2cccc(C(F)(F)F)c2)CCOC(c2ccc(S(C)(=O)=O)cc2)C1 (centres unmarked) [SC-112, 4-Methyl-2-(4-methylsulfonyl-phenyl)-4-[[3-(trifluoromethyl)phenyl]sulfonyl]-tetrahydro-pyran]	> 95
CC1(S(=O)(=O)c2cccc(C(F)(F)F)c2)CCOC(c2ccc(Cl)cc2S(C)(=O)=O)C1 (centres unmarked) [SC-114, 2-(4-Chloro-2-methylsulfonyl-phenyl)-4-methyl-4-[[3-(trifluoromethyl)phenyl]sulfonyl]-tetrahydro-pyran]	75 to 95
CC(C)c1ccc(C(F)(F)F)cc1S(=O)(=O)C1CCOC(c2ccc(Cl)cc2)C1 (centres unmarked) [SC-118, 2-(4-Chlorophenyl)-4-[[2-isopropyl-5-(trifluoromethyl)-phenyl]sulfonyl]-tetrahydro-pyran]	40 to 75
CC1(S(=O)(=O)c2cccc(C(F)(F)F)c2)CCOCC1c1ccc(Cl)cc1 (centres unmarked) [SC-120, 3-(4-Chlorophenyl)-4-methyl-4-[[3-(trifluoromethyl)phenyl]sulfonyl]-tetrahydro-pyran]	75 to 95
CC1(c2ccc(Cl)cc2)CC(S(=O)(=O)c2cccc(C(F)(F)F)c2)CCO1 (centres unmarked) [SC-140, 2-(4-Chlorophenyl)-2-methyl-4-[[3-(trifluoromethyl)phenyl]sulfonyl]-tetrahydro-pyran]	75 to 95
Cc1ccc(S(C)(=O)=O)cc1C1CC(C)(S(=O)(=O)c2cccc(C(F)(F)F)c2)CCO1 (centres unmarked) [SC-200, 4-Methyl-2-(2-methyl-5-methylsulfonyl-phenyl)-4-[[3-(trifluoromethyl)phenyl]sulfonyl]-tetrahydro-pyran]	75 to 95
CC1(S(=O)(=O)c2cccc(C(F)(F)F)c2)CCOC(c2cc(C(F)(F)F)cc(S(C)(=O)=O)c2)C1 (centres unmarked) [SC-202, 4-Methyl-2-[3-methylsulfonyl-5-(trifluoromethyl)-phenyl]-4-[[3-(trifluoromethyl)phenyl]sulfonyl]-tetrahydro-pyran]	> 95
CC1(S(=O)(=O)c2cccc(C(F)(F)F)c2)CCOC(c2cc(F)ccc2S(C)(=O)=O)C1 (centres unmarked) [SC-205, 2-(5-Fluoro-2-methylsulfonyl-phenyl)-4-methyl-4-[[3-(trifluoromethyl)phenyl]sulfonyl]-tetrahydro-pyran]	75 to 95
